target: T1, murine TLR7 (Mus musculus, UniProt P58681); assay: HEK-Blue mTLR7 NF-κB/AP-1-inducible SEAP reporter cell assay; assay type: cell-based; conditions: Figure 2; 10 µg/mL to 10 pg/ml, 24 hours, SEAP read as OD at 655 nm
T1 construct: host or cells: HEK293 (ATCC, CRL-1573), HEK-Blue mTLR7
T1 sequence (P58681 27-1050): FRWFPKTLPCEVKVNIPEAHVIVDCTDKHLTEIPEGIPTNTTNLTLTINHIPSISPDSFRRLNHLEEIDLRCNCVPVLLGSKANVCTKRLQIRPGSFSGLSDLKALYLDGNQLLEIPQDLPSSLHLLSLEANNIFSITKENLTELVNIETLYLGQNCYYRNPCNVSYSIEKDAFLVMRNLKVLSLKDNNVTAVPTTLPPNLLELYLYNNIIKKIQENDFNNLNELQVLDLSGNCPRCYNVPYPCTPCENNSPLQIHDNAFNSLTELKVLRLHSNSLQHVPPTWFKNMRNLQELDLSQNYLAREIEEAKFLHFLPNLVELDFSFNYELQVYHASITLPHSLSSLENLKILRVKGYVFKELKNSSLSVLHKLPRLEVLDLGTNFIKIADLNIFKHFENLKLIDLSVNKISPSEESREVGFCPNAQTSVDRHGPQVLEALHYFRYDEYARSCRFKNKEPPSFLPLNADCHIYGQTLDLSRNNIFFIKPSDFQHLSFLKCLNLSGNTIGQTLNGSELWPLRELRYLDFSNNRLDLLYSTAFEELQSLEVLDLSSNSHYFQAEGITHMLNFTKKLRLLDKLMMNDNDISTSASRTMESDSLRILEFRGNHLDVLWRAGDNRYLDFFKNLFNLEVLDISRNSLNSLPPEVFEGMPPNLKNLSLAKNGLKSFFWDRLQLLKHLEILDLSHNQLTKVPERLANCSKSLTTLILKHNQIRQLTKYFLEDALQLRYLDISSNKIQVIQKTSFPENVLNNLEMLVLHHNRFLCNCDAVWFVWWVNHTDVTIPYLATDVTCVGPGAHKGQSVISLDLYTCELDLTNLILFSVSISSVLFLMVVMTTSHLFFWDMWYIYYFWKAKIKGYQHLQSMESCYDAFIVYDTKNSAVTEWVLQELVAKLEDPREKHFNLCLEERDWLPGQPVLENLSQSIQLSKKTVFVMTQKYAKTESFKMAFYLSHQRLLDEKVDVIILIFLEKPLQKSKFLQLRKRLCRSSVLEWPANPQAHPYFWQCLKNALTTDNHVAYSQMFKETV
From the text: Assays for detecting TLR7, TLR8 or TLR2 activity are known in the art and include for example cell-based assays using respectively TLR7, TLR8 or TLR2 reporter cell lines (InvivoGen). The reporter cell lines are engineered HEK293 cells, a human embryonic kidney cell line (ATCC, CRL-1573) that stably express either murine TLR7 (HEK-Blue™ mTLR7) or human TLR7 (HEK-Blue™ hTLR7), human TLR8 (HEK-Blue™ hTLR8) or human TLR2 (HEK- Blue™ hTLR2) with an NF-κB-inducible secreted embryonic alkaline phosphatase (SEAP) as the reporter gene.
Cell-based assays were carried out using TLR7 and TLR2 reporter cell lines (InvivoGen). The reporter cell lines are engineered HEK293 cells, a human embryonic kidney cell line (ATCC, CRL-1573) that stably express either murine TLR7 (HEK-Blue™ mTLR7) or human TLR7 (HEK-Blue™ hTLR7) or human TLR2 (HEK- Blue™ hTLR2) with an NF-κB-inducible secreted embryonic alkaline phosphatase (SEAP) as the reporter gene. The SEAP reporter gene is under the control of the NF-κB and AP-1-inducible promoter, which, upon treatment with a corresponding TLR ligand and activation of NF-κB and AP-1, induces the production of SEAP. Detection of SEAP is measured following culturing cells in HEK-Blue™ Detection media (InvivoGen). HEK-Blue™ Detection contains a SEAP substrate that when hydrolysed by SEAP produces a colorimetric change allowing for detection of SEAP as the protein is secreted. […] These assays were carried out using RAW-Blue™ Cells (InvivoGen), derived from RAW 264.7 mouse leukemic monocyte macrophage cell line (ATCC, CRL 2278) stably overexpressing a NF-κB /AP-1 inducible SEAP reporter constructs.
To perform the assay, cells were seeded on 96 well microliter plates at 50,000 or 100,000 cells per well for HEK-Blue™ Cells and RAW-Blue™ Cells respectively, and cultured at 37 °C in the presence of the conjugated compounds The TLR7-TLR2 polyamine molecules were prepared as follows: First, stock solutions of the conjugated compounds of the invention were prepared in ethanol or water to a concentration of 10 mg/ml.
The working dilutions of the conjugated TLR7-TLR2 polyamine agonists made up in water or PBS were directly added to the reporter cell lines at a final concentration ranging from 10 µg/mL to 10 pg/ml and incubated at 37 °C for 24 hours. After 24 hours of incubation, the effect on reporter gene activity was determined by reading the OD at 655 nm using iMark™ Microplate Reader (BIO-RAD).

Ability to activate mTLR7, activate mTLR7:
CCCCCCCCCCCCCCCC(=O)OCC(CSC[C@H](N)C(=O)NCCCNCCCCNCCCNC(=O)CNC(=O)c1ccc(Cn2c(O)nc3c(N)nc(NCCCC)nc32)cc1)OC(=O)CCCCCCCCCCCCCCC (stereo partly drawn) [CL553, (20R)-20-amino-1-(4-((6-amino-2-(butylamino)-8-hydroxy-9H-purin-9-yl)methyl)phenyl)-1,4,19-trioxo-22-thia-2,5,9,14,18-pentaazapentacosane-24,25-diyl dipalmitate]
CCCCCCCCCCCCCCCC(=O)OCC(CSC[C@H](N)C(=O)N[C@@H](CCC(=O)NCCCNCCCCNCCCN)C(=O)Nc1ccc(Cn2c(O)nc3c(N)nc(NCCCC)nc32)cc1)OC(=O)CCCCCCCCCCCCCCC (stereo partly drawn) [CL527, (6R,9S)-6,25-diamino-9-(4-((6-amino-2-(butylamino)-8-hydroxy-9H-purin-9-yl)methyl)phenylcarbamoyl)-7,12-dioxo-4-thia-8,13,17,22-tetraazapentacosane-1,2-diyl dipalmitate]
CCCCCCCCCCCCCCCC(=O)OCC(CSC[C@H](N)C(=O)N[C@@H](CCCCNC(=O)CNC(=O)c1ccc(Cn2c(O)nc3c(N)nc(NCCCC)nc32)cc1)C(=O)NCCCNCCCCNCCCN)OC(=O)CCCCCCCCCCCCCCC (stereo partly drawn) [CL475, (6R,9S)-6,23-diamino-9-(4-(2-(4-((6-amino-2-(butylamino)-8-hydroxy-9H-purin-9-yl)methyl)benzamido)acetamido)butyl)-7,10-dioxo-4-thia-8,11,15,20-tetraazatrico sane-1,2-diyl dipalmitate]
CCCCCCCCCCCCCCCC(=O)OCC(CSC[C@H](N)C(=O)NCCCC[C@H](NC(=O)c1ccc(Cn2c(O)nc3c(N)nc(NCCCC)nc32)cc1)C(=O)NCCCNCCCCNCCCN)OC(=O)CCCCCCCCCCCCCCC (stereo partly drawn) [CL486, (6R,13S)-6,27-diamino-13-(4-((6-amino-2-(butylamino)-8-hydroxy-9H-purin-9-yl)methyl)benzamido)-7,14-dioxo-4-thia-8,15,19,24-tetraazaheptacosane-1,2-diyl dipalmitate]
CCCCCCCCCCCCCCCC(=O)OCC(CSC[C@H](N)C(=O)N[C@@H](COC(=O)c1ccc(Cn2c(O)nc3c(N)nc(NCCCC)nc32)cc1)C(=O)NCCCNCCCCNCCCN)OC(=O)CCCCCCCCCCCCCCC (stereo partly drawn) [CL514, (6R,9S)-6,23-diamino-9-((4-((6-amino-2-(butylamino)-8-hydroxy-9H-purin-9-yl)methyl)benzoyloxy)methyl)-7,10-dioxo-4-thia-8,11,15,20-tetraazatricosane-1,2-diyl dipalmitate]
CCCCCCCCCCCCCCCC(=O)OCC(CSC[C@H](N)C(=O)NCCCC[C@H](NC(=O)CNC(=O)c1ccc(Cn2c(O)nc3c(N)nc(NCCCC)nc32)cc1)C(=O)NCCCNCCCCNCCCN)OC(=O)CCCCCCCCCCCCCCC (stereo partly drawn) [CL487, (6R,13S)-6,27-diamino-13-(2-(4-((6-amino-2-(butylamino)-8-hydroxy-9H-purin-9-yl)methyl)benzamido)acetamido)-7,14-dioxo-4-thia-8,15,19,24-tetraazaheptacosane-1,2-diyl dipalmitate]
